Test results as given in the supplement of paper PMC3974653.
Where a name gives a salt, the structure may show the parent alone.

The molecules below were run on MTT (mouse pheochromocytoma) (assay: IC50 of cell viability (ATP content)). Conditions: (24 or 48 h).
Method in brief: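 Cells of the MTT mouse pheochromocytoma line, 5 µl per well at 200,000 cells/ml, were grown overnight at 37°C, 5% CO2 in white 1536-well plates with DMEM, 5% FBS and 1% horse serum. Pintool transfer then delivered 23 nl of library compound in DMSO, giving 8 final concentrations from 0.5 nM to 46 µM, for an exposure of 24 or 48 hrs. Luminescence from CellTiter-Glo was read after 15 minutes and referenced to positive-control wells (100%) and DMSO wells (0%). IC50 was calculated with a four-parameter logistic fit.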

Row | Structure (SMILES) | IC50 of cell viability [µM]
1 | CN1CCCCC1CCN1c2ccccc2Sc2ccc(S(C)=O)cc21 (stereo unspecified) [MESORIDAZINE] | > 46
2 | C#C[C@]1(O)CC[C@H]2[C@@H]3CCc4cc(OC)ccc4[C@H]3CC[C@@]21C [MESTRANOL] | > 46
3 | CN1C[C@@H](NS(=O)(=O)N(C)C)C[C@@H]2c3cccc4c3c(cn4C)C[C@H]21 [MESULERGINE] | > 46
4 | CC(=O)Nc1cccc(O)c1 [METACETAMOL] | > 46
5 | C=NC(C(=O)NC1C(=O)N2C1SC(C)(C)C2C(=O)[O-])c1ccccc1.[Na+] (stereo unspecified) [METAMPICILLIN SODIUM] | > 46
6 | Cc1cc(C)cc(OCC2CNC(=O)O2)c1 (stereo unspecified) [METAXALONE] | > 46
7 | CCCCCCC(=O)O[C@H]1CC[C@H]2[C@@H]3CCC4CC(=O)\C=C(C)/[C@]4(C)[C@H]3CC[C@]12C (stereo partly specified) [METENOLONE ENANTHATE] | > 46
8 | CN(C)CCN(Cc1cccs1)c1ccccn1.Cl [METHAPYRILENE HYDROCHLORIDE] | > 46
9 | C=C1Nc2ccccc2C(=O)N1c1ccccc1C [METHAQUALONE] | > 46
10 | CCC1(CC)C(=O)NC(=O)N(C)C1=O [METHARBITAL] | > 46
11 | COc1cccc(OC)c1C(=O)NC1C(=O)N2C1SC(C)(C)C2C(=O)[O-].[Na+] (stereo unspecified) [METHICILLIN SODIUM] | > 46
12 | CSCCC(N)C(=O)O (stereo unspecified) [METHIONINE] | > 46
13 | CSc1ccc2c(c1)C(N1CCN(C)CC1)Cc1ccccc1S2 (stereo unspecified) [METHIOTHEPIN] | > 46
14 | COc1ccc(OC)c(C(O)C(C)N)c1.Cl (stereo unspecified) [METHOXAMINE HYDROCHLORIDE] | > 46
15 | COc1ccc(CCN(C)CCCC(C#N)(c2cc(OC)c(OC)c(OC)c2)C(C)C)cc1OC (stereo unspecified) [METHOXY VERAPAMIL] | > 46
16 | COC(F)(F)C(Cl)Cl [METHOXYFLURANE] | > 46
17 | CN1C(CCl)Nc2cc(Cl)c([S+](N)(=O)[O-])cc2[S+]1(=O)[O-] (stereo unspecified) [METHYCLOTHIAZIDE] | > 46
18 | COC(=O)CCC(=O)CN [METHYL AMINOLEVULINATE HYDROCHLORIDE] | > 46
19 | COC(=O)c1cccnc1 [METHYL NICOTINATE] | > 46
20 | C=CCCCCCCCCC(=O)OC [METHYL UNDECENOATE] | > 46
21 | CC[N+](C)(CC)CCOC(=O)C(O)(c1ccccc1)c1ccccc1 [METHYLBENACTYZIUM BROMIDE] | > 46

Row | Structure (SMILES) | IC50 of cell viability [µM]
22 | Cn1sc(Cl)cc1=O [METHYLCHLOROISOTHIAZOLINONE] | > 46
23 | CC[C@@H](CO)NC(=O)[C@H]/1CN(C)[C@@H]2CC3=C[NH]C4=C3C(=CC=C4)\C2=C1 [METHYLERGOMETRINE] | > 46
24 | C[S+](C)CC[C@H](N)C(=O)O [METHYLMETHIONINE SULFONIUM CHLORIDE] | > 46
25 | C[C@]1(O)CC[C@H]2[C@@H]3CCC/4=C/C(=O)CC[C@]4(C)[C@H]3CC[C@]12C [METHYLTESTOSTERONE] | > 46
26 | C\C1=C\C(=O)NC(=S)N1 [METHYLTHIOURACIL] | > 46
27 | CC[C@@H](CO)NC(=O)[C@H]\1CN(C)[C@@H]2CC3=C[N](C)C4=CC=CC(=C34)/C2=C1 [METHYSERGIDE] | > 46
28 | CO[C@H]1[C@@H](O)CC(O[C@@H]1C)OC2[C@@H](O)CC(O[C@@H]2C)OC3[C@@H](O)C[C@@H](O[C@@H]3C)OC4CC[C@@]5(C)C(CCC6C5CC(O)[C@]7(C)[C@@H](CCC67O)C/8=C/C(=O)OC8)C4 (stereo partly specified) [METILDIGOXIN] | > 46
29 | CN1C(=O)/C(=N\NC(N)=S)c2ccccc21 [METISAZONUM] | > 46
30 | C[N+](C)(C)CCOC(=O)C(O)(c1ccccc1)c1ccccc1 [METOCINII IODIDUM] | > 46
31 | CCN(CC)CCNC(=O)c1cc(Cl)c(N)cc1OC [METOCLOPRAMIDE] | > 46
32 | COc1ccc2cc1Oc1cc3c(cc1OC)CC[N+](C)(C)C3Cc1ccc(cc1)Oc1c(OC)c(OC)cc3c1C(C2)[N+](C)(C)CC3 (stereo unspecified) [METOCURINE IODIDE] | > 46
33 | COC(=O)c1cncn1C(C)c1ccccc1 (stereo unspecified) [METOMIDATE HYDROCHLORIDE] | > 46
34 | COC(=O)C1C2CC3c4[nH]c5cc(OC)ccc5c4CCN3CC2CC(OC)C1OC (stereo unspecified) [METOSERPATE HYDROCHLORIDE] | > 46
35 | Cc1ncc([N+](=O)[O-])n1CCO [METRONIDAZOLE] | > 46
36 | CC1(C)S[C@@H]2[C@H](NC(=O)[C@H](NC(=O)N3CCN([S+](C)(=O)[O-])C3=O)c3ccccc3)C(=O)N2[C@H]1C(=O)O [MEZLOCILLIN SODIUM MONOHYDRATE] | > 46
37 | CC[N+](CC)(CC)CCOc1ccc(/C=C/c2ccccc2)cc1 [MG 624] | > 46
38 | CN1CCN2c3ccccc3Cc3ccccc3C2C1 (stereo unspecified) [MIANSERIN] | > 46
39 | O=C(O)[C@H]1CN(C/C=C/P(=O)(O)O)CCN1 [MIDAFOTELUM] | > 46
40 | CC1=NC=C2C\N=C(\C3=CC=CC=C3F)C4=CC(=CC=C4[N]12)Cl [MIDAZOLAM HYDROCHLORIDE] | > 46
41 | COP(=O)(OC)OC(c1ccc(Cl)cc1)P(=O)(OC)OC (stereo unspecified) [MIFOBATUM] | > 46
42 | OCCN1CC(O)C(O)C(O)C1CO (stereo unspecified) [MIGLITOL] | > 46

Row | Structure (SMILES) | IC50 of cell viability [µM]
43 | CCCCN1CC(O)C(O)C(O)C1CO (stereo unspecified) [MIGLUSTAT] | > 46
44 | CCN(CC)C(=O)[C@@]1(c2ccccc2)C[C@@H]1CN [MILNACIPRAN] | > 46
45 | CCCCCCCCCCCCCCCCOP(=O)([O-])OCC[N+](C)(C)C [MILTEFOSINE] | > 46
46 | Cc1cc(-c2ccccc2)nnc1NCCN1CCOCC1.Cl.Cl [MINAPRINE HYDROCHLORIDE] | > 46
47 | Cl.CN(C)C\1[C@@H]2C[C@H]3CC4=C(C(=CC=C4N(C)C)O)C(=O)\C3=C(O)\[C@]2(O)C(=O)\C(=C1O)C(N)=O (stereo partly specified) [MINOCYCLINE HYDROCHLORIDE] | > 46
48 | Nc1cc(N2CCCCC2)nc(N)[n+]1[O-] [MINOXIDIL] | > 46
49 | O.O.O=C([O-])[C@H](CC(=O)N1C[C@H]2CCCC[C@H]2C1)Cc1ccccc1.O=C([O-])[C@H](CC(=O)N1C[C@H]2CCCC[C@H]2C1)Cc1ccccc1.[Ca+2] [MITIGLINIDE CALCIUM HYDRATE] | > 46
50 | O[C@@H]([C@H](O)[C@H](O)CBr)[C@H](O)CBr [MITOBRONITOL] | > 46
51 | COc1cc2c(cc1OC)[C@@H](Cc1cc(OC)c(OC)c(OC)c1)[N+](C)(CCCOC(=O)CC/C=C/CCC(=O)OCCC[N+]1(C)CCc3cc(OC)c(OC)cc3[C@H]1Cc1cc(OC)c(OC)c(OC)c1)CC2 (stereo partly specified) [MIVACURIUM CHLORIDE] | > 46
52 | CN(c1nccc(O)n1)C1CCN(c2nc3ccccc3n2Cc2ccc(F)cc2)CC1 [MIZOLASTINE] | > 46
53 | CN(C)C(=O)CCSC(SCCC(=O)[O-])c1cccc(/C=C/c2ccc3ccc(Cl)cc3n2)c1 (stereo unspecified) [MK-571] | > 46
54 | NC1(CCC1)C2=CC=C(C=C2)C3=C(C=C/4C(=N3)\C=C/N5C(=O)N\N=C45)C6=CC=CC=C6 [MK-2206] | > 46
55 | O=C(NCCN1CCOCC1)c1ccc(Cl)cc1 [MOCLOBEMIDE] | > 46
56 | NC(=O)C[S+]([O-])C(c1ccccc1)c1ccccc1 (stereo unspecified) [MODAFINIL] | > 46
57 | CCOC(=O)C(CCc1ccccc1)NC(C)C(=O)N1Cc2cc(OC)c(OC)cc2CC1C(=O)O (stereo unspecified) [MOEXIPRIL HYDROCHLORIDE] | > 46
58 | COc1ccc(-c2noc(CC(=O)O)c2-c2ccc(OC)cc2)cc1 [MOFEZOLAC] | > 46
59 | O=C(CCCN1CCN(c2ccc(F)cc2)CC1)NC1c2ccccc2CSc2ccccc21 (stereo unspecified) [MONATEPIL MALEATE] | > 46
60 | CCCCCCCC(=O)OCC(O)CO (stereo unspecified) [MONOCTANOIN] | > 46
61 | Cc1ncc(C[n+]2csc(CCOP(=O)(O)O)c2C)c(N)n1 [MONOPHOSPHOTHIAMINUM] | > 46
